One data set concerns RAW cells ATCC TIB-71. Nature of the data set: Cytotoxicity control (CD50) of the EN 14476 suspension test. The conditions noted are these: reference inactivation, PBS. Set-up: unit not given beside the values. As for the experimental part: Virus control: The virus titre for the murine norovirus amounted to 7.50 ± 0.47 TCID50 / 0·1 ml and thus to 8.50 ± 0.47 TCID50 / ml. The demonstrable titre reduction thus amounted to ≥ 4.00 lg^10. […] Reference The reduction factor of 0.7% formaldehyde amounted to 2·33 log^10 inactivation after 30 min exposure time and to 3.17 log^10 after 60 min exposure time.

For data set [1], the system named is murine norovirus, strain S 99 Berlin. The experiment in a line: Quantitative suspension test of virucidal effect according to EN 14476 (low stressing). The settings on record: for log reduction at 0.7 %: Norwalk virus, read-out: reduction factor; for log10-TCID50 / 0·1 ml after ... min murine norovirus: reference inactivation, PBS.
Procedure: Method A:Quantitative suspension test of virucidal effect according to EN 14476: Murine norovirus (low stressing)
Methodology:EN 14476:2005-04/A1:2006-10 and PrEN 14476:2011: Chemical disinfection agents and antiseptics - Quantitative suspension test of virucidal effect for chemical disinfection agents and antiseptics used in human medicine, Test methods and requirements (phase 2, stage 1)
In order to achieve the concentration of 97%, 0·1 ml of the virus, 0.2 ml of the 5-fold concentrated stressing substance and 9.7 ml of the product are mixed. After the termination of the exposure time, the effect of the disinfection agent is stopped by dilution (or gel filtration) and a series of dilutions in accordance with the progression 1:10/ 1:100 / 1:1,000 etc. is applied in order to determine the residual virus content. The titration is carried out in the microtitre system on 96-well plates.
Titration method: • Virus titration on cells as monolayers in 96-well microtitration plates. 0.5ml of product test solution is diluted with 4.5 ml of ice-cold DMEM + 2% FBS to a dilution of 10^-8. 100 µl of each dilution was pipetted into 6 wells of the microtitration plate. Method of terminating the effect of the product and reducing the cytotoxicity: • Gel filtration with MicroSpin columns and dilution to 10^-4 within 10 sec with ice-cold DMEM + 2% FBS
The TCID50 was calculated in accordance with the method of Spearman and Kärber. m = xk + d/2−d∑pi [formula] • m = negative logarithm of the titre in relation to the test volume • Xk = logarithm of the smallest dilution stage in which all the test objects react positively • d = logarithm of the dilution factor • pi = observed reaction rate
RF = log(viruscontrol)−log(testproduct) [formula] KRF = sqrt(((2Sm(control)))^2 + ((2Sm(residualtitre)))^2) [formula] • KRF = 95% confidence interval of the reduction factor • Sm = standard deviation of the logarithmized titre
For data set [2], the system named is murine norovirus. The settings on record: highest concentration tested of 60% by volume, non-living surfaces, Magulski et al.; cited from earlier work.
In data set [3] the test system is murine norovirus. Nature of the data set: Modified test EN 1500, hygienic disinfection of the hands of test persons contaminated with virus. The class given is in vivo. The settings on record: 5 test persons. As for the experimental part: Method B:: Modified test EN 1500 "Hygienic disinfection of the hands"
The test is based upon EN 1500 (practical test method for the hygienic disinfection of the hands).
In the tests, the hands of test persons are contaminated with 3 ml of murine norovirus, namely both the hands of the test persons of the reference group and the hands of the test persons of the test group. A sample is then taken (1 min) before the disinfection. After that, the test persons of each group disinfect their hands with disinfection agent. The test persons of the reference group disinfect twice with 3 ml of a reference product in each case, the reference product being allowed to act for 30 sec and rubbed in after each disinfection. The test persons of the test group instead disinfect twice with 3 ml of the disinfection agent to be tested. After that, a sample is taken […] (1 min), both in the reference group and in the test group.
The test persons of the respective group are then swapped over in a second test.

Read-outs that look alike come from different tables or passages of the source.

Compound `C=O` [Formaldehyde 0·7% (V/V), Formaldehyde] yielded a CD50 in the data set on RAW cells ATCC TIB-71 not above 3.5. Also, the log reduction at 0.7 % in data set [1] (0.5 h) was 2.33; in data set [1] (1 h) it was 3.17. Besides, the “log10-TCID50 / 0·1 ml after ... min murine norovirus” value in data set [1] (residual titre after 5 min) is on record as 6.33 ± 0.33 log10-TCID50 / 0·1 ml; in data set [1] (residual titre after 15 min), 5.67 ± 0.54 log10-TCID50 / 0·1 ml; in data set [1] (residual titre after 30 min) it was 5.17 ± 0.56 log10-TCID50 / 0·1 ml; in data set [1] (residual titre after 60 min), 4.33 ± 0.33 log10-TCID50 / 0·1 ml.

As to `CC(C)O` [isopropanol], the “effectiveness compared with ethanol and n-propanol” value in the data set with murine norovirus [2] was “three decadic levels below the effectiveness of ethanol and n-propanol”.

`CCO` [Ethanol 70% w/w, Ethanol]: in the data set with murine norovirus [3] (2 x 30 s with 3 ml each), the Average after disinfection is 3.02 log TCID50/ml. The Average before disinfection in the data set with murine norovirus [3] (baseline before disinfection) is recorded as 5.6 log TCID50/ml. Also, in the data set on murine norovirus [3] (reduction factor, 2 x 30 s with 3 ml each), the RF was 2.58 log TCID50/ml.

The values are drawn from patent EP3019008B1, “USE OF AN ISOPROPANOL-CONTAINING SOLUTION TO COMBAT CALCIVIRIDAE” (Schülke & Mayr GmbH, priority 2013, dated 2015).
